Laboratory results as given in patent US12655150B2 (Cedilla Therapeutics, Inc., priority 2021, dated 2026).

Each molecule was assayed on NCI-H226 (assay: 72H TEAD Proliferation Assay (Cell Titer Glo 2.0)). Conditions: CTG 2.0, cell line not given (NCI-H226 responsive, NCI-H28 non-responsive).
Format: cell-based
Procedure: 72H TEAD Proliferation Assay.
The effect of TEAD inhibition on cell proliferation was assayed using Cell Titer Glo (CTG) 2.0 to measure response in mesothelioma cell lines NCI-H226 (ATCC, #CRL-5826) and NCI-H28 (ATCC, #CRL-5820).
The 72H TEAD Proliferation assay utilizes Cell Titer-Glo 2.0 (Promega, #G9243) to measure the proliferation of cells in the presence or absence of compound. Cell Titer-Glo 2.0 determines the amount of viable cells by quantifying ATP (an indication of metabolically active cells). It utilizes the conversion of Luciferin to Oxyluciferin and a luminescent signal with the use of ATP to report the quantity of viable cells in culture. Within cells that are continually growing, ATP is being synthesized to meet their metabolic demands, meanwhile the opposite is true for cells that are dying or slowing down their proliferation and either no longer using ATP or are using less, respectively. The NF2-deficient NCI-H226 has been genetically validated as a cell line that is sensitive to TEAD inhibition. The NF2-wild type NCI-H28 has been genetically validated as a cell line that is not sensitive to TEAD inhibition and grows independently of TEAD activity.
Compounds were screened against the responsive NCI-H226 cell line to assess the compounds' ability to inhibit TEAD and cell growth. Compounds were also screened against the non-responsive NCI-H28 cell line to ascertain whether the inhibition of cell growth was due to inhibition of the target TEAD or whether the inhibition was due to off-target cytotoxicity.
• 1) Assay ready plates (ARPs) were prepared by Echo acoustic liquid handler. […] After CTG addition, plates were placed on shaker at 800 RPM for 15 minutes at room temperature and kept in the dark. Luminescence was measured using EnVision multilabel plate reader with ultra-sensitive detection module. • 9) Data Analysis: First background luminescence (no CTG wells) was subtracted from luminescence reading of all wells, then TO luminescence was subtracted from T72 luminescence. To compare anti-proliferative effect of compounds, GI50 was obtained by fitting dose response curves with nonlinear regression curve fit.
`CC(C)(C)c1ccc(-c2nc3cc(S(C)(=N)=O)ccc3n3cccc23)cc1` (single isomer, unassigned) [I-209, (4-(4-(tert-Butyl)phenyl)pyrrolo[1,2-a]quinoxalin-7-yl)(imino)(methyl)-16-sulfanone] showed a GI50 of 5 to 10 µM.

Same assay, conditions: Homo sapiens, NCI-H226, 72 h, CTG 2.0, cell line not given (NCI-H226 responsive, NCI-H28 non-responsive)
Molecule `O=C(O)c1ccc2c(c1)nc(N1CCOCC1)c1cccn12` [I-7, 4-Morpholinopyrrolo[1,2-a]quinoxaline-7-carboxylic acid] has a GI50 greater than 10 µM.
Molecule `CC(C)(C)c1ccc(-c2nc3cc(CO)ccc3n3ccnc23)cc1` [I-77, (4-(4-(tert-Butyl)phenyl)imidazo[1,2-a]quinoxalin-7-yl)methanol] has a GI50 greater than 10 µM.
`CC(C)(C)c1ccc(-c2cncc3c(C(=O)O)c[nH]c23)cc1` [I-97, 7-(4-(tert-Butyl)phenyl)-1H-pyrrolo[3,2-c] pyridine-3-carboxylic acid] showed a GI50 greater than 10 µM.
`N#Cc1cc(-c2ccc(C(F)(F)F)cc2)nc2cc(C(=O)O)ccc12` [I-401, 4-cyano-2-(4-(trifluoromethyl)phenyl)quinoline-7-carboxylic acid] gave a GI50 of 5 to 10 µM.
`O=C(O)c1ccc2c(c1)nc(-c1ccc(C(F)(F)F)cc1F)c1cccn12` [I-50, 4-(2-fluoro-4-(trifluoromethyl)phenyl) pyrrolo[1,2-a] quinoxaline-7-carboxylic acid] was tested, and the GI50 was no more than 1 µM.
With `O=C(O)c1cc2nc(-c3ccc(C(F)(F)F)cc3)c3ccccc3n2c1` [I-421, 5-(4-(trifluoromethyl)phenyl)pyrrolo[1,2-a]quinazoline-2-carboxylic acid] the GI50 was 1 to 5 µM.
With `O=C(O)c1ccc2c(c1)nc(OCc1cccc(C(F)(F)F)c1)c1cccn12` [I-131, 4-((3-(Trifluoromethyl)benzyl)oxy)pyrrolo[1,2-a]quinoxaline-7-carboxylic acid] the GI50 was greater than 10 µM.
Work on `Cc1cc(-c2ccc(C(F)(F)F)cc2)nc2cc(C(=O)N[C@@H](C)CO)ccc12` [I-262, (S)—N-(1-hydroxypropan-2-yl)-4-methyl-2-(4-(trifluoromethyl)phenyl)quinoline-7-carboxamide] yielded a GI50 of no more than 1 µM.
For `O=C(O)c1cnc2c(c1)nc(N1CCC3(CC1)CC3)c1cccn12` [I-138, 6-(6-Azaspiro[2.5]octan-6-yl)pyrido[3,2-e]pyrrolo[1,2-a]pyrazine-3-carboxylic acid], the GI50 was 1 to 5 µM.
`C=CC(=O)N(C)Cc1cn2ccnc2c(-c2ccc(C(F)(F)F)cc2)n1` [I-177, N-Methyl-N-((8-(4-(trifluoromethyl)phenyl)imidazo[1,2-a]pyrazin-6-yl)methyl)acrylamide] was tested, and the GI50 was no more than 1 µM.
`Cn1cnc(-c2cc(-c3ccc(C(F)(F)F)cc3)nc3cc(C(=O)O)ccc23)c1` [I-388, 4-(1-methyl-1H-imidazol-4-yl)-2-(4-(trifluoromethyl)phenyl)quinoline-7-carboxylic acid] gave a GI50 of 1 to 5 µM.
With `C=CC(=O)Nc1cn2cccc2c(-c2ccc(C(F)(F)F)cc2)n1` [I-96, N-(1-(4-(trifluoromethyl)phenyl)pyrrolo[1,2-a]pyrazin-3-yl)acrylamide] the GI50 was no more than 1 µM.
`O=C(O)c1ccc2c(c1)nc(NC1CCCC(C(F)(F)F)C1)c1cccn12` (stereo not drawn) [I-19, 4-((3-(Trifluoromethyl)cyclohexyl)amino)pyrrolo[1,2-a]quinoxaline-7-carboxylic acid] showed a GI50 of 1 to 5 µM.
With `CC(C)(C)c1ccc(-c2nc3cc(C(=O)O)ccc3n3cccc23)c(F)c1` [I-49, 4-(4-(tert-Butyl)-2-fluorophenyl)pyrrolo[1,2-a]quinoxaline-7-carboxylic acid] the GI50 was greater than 10 µM.
In the case of `COc1cc(-c2ccc(C(F)(F)F)cc2)nc2cc(C3(O)COC3)ccc12` [I-419, 3-(4-methoxy-2-(4-(trifluoromethyl)phenyl)quinolin-7-yl)oxetan-3-ol], the GI50 was 1 to 5 µM.
`C=CC(=O)Nc1ccc2c(C)cc(-c3ccc(C(F)(F)F)cc3F)nc2c1` [I-90, N-(2-(2-fluoro-4-(trifluoromethyl)phenyl)-4-methylquinolin-7-yl)acrylamide] showed a GI50 of no more than 1 µM.
Molecule `CC(C)(C)c1ccc(-c2nc3cc(C(=O)O)cc(CO)c3n3cccc23)cc1` [I-279, 4-(4-(tert-butyl)phenyl)-9-(hydroxymethyl)pyrrolo[1,2-a]quinoxaline-7-carboxylic acid] has a GI50 of 1 to 5 µM.
For `Cc1cc(C(F)(F)F)ccc1-c1nc2cc(C(=O)O)ccc2n2cccc12` [I-52, 4-(2-Methyl-4-(trifluoromethyl)phenyl)pyrrolo[1,2-a]quinoxaline-7-carboxylic acid], the GI50 was 1 to 5 µM.
For `O=C(O)c1ccc2c(c1)nc(C1CCCCC1)c1nccn12` [I-68, 4-Cyclohexylimidazo[1,2-a]quinoxaline-7-carboxylic acid], the GI50 was greater than 10 µM.
`O=C(O)c1ccc2c(c1)nc(-c1ccc(C(F)(F)F)cc1)c1nccn12` [I-61, 4-(4-(Trifluoromethyl)phenyl)imidazo[1,2-a]quinoxaline-7-carboxylic acid] was tested, and the GI50 was 1 to 5 µM.
`C=CC(=O)NCc1cc2ccccc2c(-c2ccc(C(F)(F)F)cc2F)n1` [I-301, N-((1-(2-Fluoro-4-(trifluoromethyl)phenyl)isoquinolin-3-yl)methyl)acrylamide] was tested, and the GI50 was no more than 1 µM.
Work on `C=CC(=O)Nc1ccc2cnc(-c3ccc(C)cc3)nc2c1` [I-81, N-(2-(p-Tolyl)quinazolin-7-yl)acrylamide] yielded a GI50 of 1 to 5 µM.
`COc1cc(-c2ccc(C(F)(F)F)cc2)nc2cc(C(=O)N[C@@H](CO)C(C)C)ccc12` [I-343, (R)—N-(1-hydroxy-3-methylbutan-2-yl)-4-methoxy-2-(4-(trifluoromethyl)phenyl)quinoline-7-carboxamide] was tested, and the GI50 was no more than 1 µM.
`CC(C)(C)c1ccc(-c2nc3cc(C(=O)O)cc(F)c3n3ccnc23)cc1` [I-72, 4-(4-(tert-Butyl)phenyl)-9-fluoroimidazo[1,2-a]quinoxaline-7-carboxylic acid] gave a GI50 of 5 to 10 µM.
With `C=CC(=O)NCc1cn2ccnc2c(-c2ccc(C(F)(F)F)cc2F)n1` [I-175, N-((8-(2-Fluoro-4-(trifluoromethyl)phenyl)imidazo[1,2-a]pyrazin-6-yl)methyl)acrylamide] the GI50 was no more than 1 µM.
With `CCNS(=O)(=O)c1ccc2c(OC)cc(-c3ccc(C(F)(F)F)cc3)nc2c1` [I-417, N-ethyl-4-methoxy-2-(4-(trifluoromethyl)phenyl)quinoline-7-sulfonamide] the GI50 was no more than 1 µM.
Work on `COc1cc(-c2ccc(C(F)(F)F)cc2)nc2cc(C(=O)N[C@@H](CO)c3ccccc3)ccc12` [I-345, (R)—N-(2-hydroxy-1-phenylethyl)-4-methoxy-2-(4-(trifluoromethyl)phenyl)quinoline-7-carboxamide] yielded a GI50 of no more than 1 µM.
`CC(C)(C)c1ccc(-n2ccc3cc(C(=O)O)ccc32)cc1` [I-101, 1-(4-(tert-Butyl)phenyl)-1H-indole-5-carboxylic acid] was tested, and the GI50 was greater than 10 µM.
`C=C(F)C(=O)NCc1nc(-c2ccc(C(F)(F)F)cc2)c2cccnc2n1` [I-307, 2-fluoro-N-((4-(4-(trifluoromethyl)phenyl)pyrido[2,3-d]pyrimidin-2-yl)methyl)acrylamide] was tested, and the GI50 was no more than 1 µM.
Work on `C=CC(=O)NCc1nc2ncccn2c1-c1ccc(C(F)(F)F)cc1` [I-410, N-((3-(4-(trifluoromethyl)phenyl)imidazo[1,2-a]pyrimidin-2-yl)methyl)acrylamide] yielded a GI50 of no more than 1 µM.
Molecule `C=CC(=O)Nc1ccc2ccc(-c3ccc(C(C)(C)C)cc3)nc2c1` [I-106, N-(2-(4-(tert-butyl)phenyl)quinolin-7-yl)acrylamide] has a GI50 of 1 to 5 µM.
Molecule `O=C(O)c1ccc2c(c1)nc(N1CCC3(CC1)CC(F)(F)C3)c1cccn12` [I-32, 4-(2,2-Difluoro-7-azaspiro [3.5]nonan-7-yl) pyrrolo[1,2-a] quinoxaline-7-carboxylic acid] has a GI50 of 1 to 5 µM.
